According to US20210007356A1, “IMIDE DERIVATIVE AND FUNGICIDE CONTAINING SAID DERIVATIVE AS ACTIVE INGREDIENT” (HOKKO CHEMICAL INDUSTRY CO., LTD., priority 2018, published 2021):
Like-named read-outs stand apart in the source and are kept apart here.

Assays:
[1] = tested on: rice sheath blight fungus (Thanatephorus cucumeris); assay: Test Example 8: control effect against rice sheath blight by box treatment (granule); conditions: 5 g of granule on nursery box, paddy rice; inoculated after 3 weeks; 7 days after inoculation
From the text: (§1) Control value (%)=[1−(lesion height in sprayed plot/lesion height in unsprayed plot)]×100 (d)
From the top of a nursery box, 5 g of a granule prepared according to Formulation Example-4 was applied to a 2.5-leaf-stage paddy rice (variety: Asahi) seedling raised using a nursery box ( 1/10 the area of standard nursery box in size: 12 cm×15 cm×height 4 cm) within a greenhouse. The formulation-treated paddy rice seedling was immediately transplanted at 5 seedlings/pot into a pot ( 1/10000 are in size) filled with paddy soil (flooded). After growing for 3 weeks within a greenhouse, a culture of rice sheath blight fungus (Thanatephorus cucumeris) grown in advance on a rice straw medium was inoculated into the root of the formulation-treated paddy rice, and disease development was promoted in an artificial weather chamber at 26° C. (relative humidity=100%). Seven days after the inoculation, the rice sheath blight lesion height (height from the root) was examined, and the control value (%) was calculated according to formula (d). […] This test was performed with three replications, each consisting of one plot and one pot, per one formulation plot, and its average evaluation value of control effect was determined.

[2] = tested on: rice blast fungus (Pyricularia grisea); format: in vivo; conditions: flowable diluted to 100 ppm, 10 mL per pot foliage spray on paddy rice; inoculated day after; 7 days after inoculation
[3] = tested on: rice sheath blight fungus (Thanatephorus cucumeris); assay: Test Example 10: control effect against rice sheath blight by water surface application (flowable formulation); conditions: flowable 1,000 ppm, 1 mL dripped in paddy water, inoculated after 1 week, 7 days after inoculation
Method: as §1
By dripping treatment in paddy water, 1 mL of a diluted solution (1,000 ppm) of a flowable prepared according to Formulation Example-3 was applied to a 5-leaf-stage paddy rice (variety: Asahi) seedling (5 seedlings/stub, one stub/pot) grown in a pot ( 1/10000 are in size) filled with paddy soil (flooded) within a greenhouse. After growing for 1 week within a greenhouse, a culture of rice sheath blight fungus (Thanatephorus cucumeris) grown in advance on a rice straw medium was inoculated into the root of the formulation-treated paddy rice, and disease development was promoted in an artificial weather chamber at 26° C. (relative humidity=100%). Seven days after the inoculation, the rice sheath blight lesion height (height from the root) was examined, and the control value (%) was calculated according to formula (d). […] This test was performed with three replications, each consisting of one plot and one pot, per one formulation plot, and its average evaluation value of control effect was determined.

[4] = tested on: rice sheath blight fungus (Thanatephorus cucumeris); assay: Test Example 6: control effect against rice sheath blight by box treatment (flowable formulation); conditions: flowable 5,000 ppm, 50 mL irrigation of nursery box, paddy rice; inoculated after 3 weeks; 7 days after inoculation
[5] = tested on: barley powdery mildew fungus (Erysiphe graminis); assay: Test Example 2: control effect against barley powdery mildew by foliage application; format: in vivo; conditions: wettable powder diluted to 100 ppm, 10 mL per pot foliage spray on barley; inoculated day after; 7 days after inoculation
[6] = tested on: rice blast fungus (Pyricularia grisea); format: in vivo; conditions: flowable 5,000 ppm, 50 mL irrigation of nursery box, paddy rice; inoculated after 3 weeks; 7 days after inoculation
[7] = tested on: rice blast fungus (Pyricularia grisea); format: in vivo; conditions: 5 g of granule on nursery box, paddy rice; inoculated after 3 weeks; 7 days after inoculation
[8] = tested on: rice blast fungus (Pyricularia grisea); format: in vivo; conditions: flowable 1,000 ppm, 1 mL dripped in paddy water, inoculated after 1 week, 7 days after inoculation

SMILES: Cn1cc(C(=O)N(C(=O)c2snc(Cl)c2Cl)c2ccccc2C2CC2C2CC2)c(C(F)F)n1 (centres unmarked) [1-29]
- evaluation value of control effect (from control value, lesion height) [1]: 5
- evaluation value of control effect (from control value, number of lesions) [2]: 4
- evaluation value of control effect (from control value, lesion height) [3]: 5
- evaluation value of control effect (from control value, lesion height) [4]: 5
- evaluation value of control effect (from control value, lesion area percentage) [5]: 4
- evaluation value of control effect (from control value, number of lesions) [6]: 5
- evaluation value of control effect (from control value, number of lesions) [7]: 5
- evaluation value of control effect (from control value, number of lesions) [8]: 5

SMILES: CC(C)CC(C)c1ccccc1N(C(=O)c1cn(C)nc1C(F)F)C(=O)c1snc(Cl)c1Cl (centres unmarked) [1-35]
- evaluation value of control effect (from control value, lesion height) [1]: 5
- evaluation value of control effect (from control value, number of lesions) [2]: 4
- evaluation value of control effect (from control value, lesion height) [3]: 5
- evaluation value of control effect (from control value, lesion height) [4]: 5
- evaluation value of control effect (from control value, lesion area percentage) [5]: 5
- evaluation value of control effect (from control value, number of lesions) [6]: 5
- evaluation value of control effect (from control value, number of lesions) [7]: 5
- evaluation value of control effect (from control value, number of lesions) [8]: 5

SMILES: Cc1nnsc1C(=O)N(C(=O)c1cn(C)nc1C(F)F)c1ccccc1C(C)CC(C)C (centres unmarked) [1-146, N-{3-(Difluoromethyl)-1-methylpyrazole-4-carbonyl}-N-{2-(1,3-dimethylbutyl)phenyl}-4-methylthiadiazole-5-carboxamide]
- evaluation value of control effect (from control value, lesion height) [1]: 5
- evaluation value of control effect (from control value, number of lesions) [2]: 4
- evaluation value of control effect (from control value, lesion height) [3]: 5
- evaluation value of control effect (from control value, lesion height) [4]: 5
- evaluation value of control effect (from control value, lesion area percentage) [5]: 4
- evaluation value of control effect (from control value, number of lesions) [6]: 5
- evaluation value of control effect (from control value, number of lesions) [7]: 5
- evaluation value of control effect (from control value, number of lesions) [8]: 5

SMILES: CC(C)CC(C)c1ccccc1N(C(=O)c1cn(C)nc1C(F)F)C(=O)c1snnc1C(F)F (centres unmarked) [1-237]
- evaluation value of control effect (from control value, lesion height) [1]: 5
- evaluation value of control effect (from control value, number of lesions) [2]: 4
- evaluation value of control effect (from control value, lesion height) [3]: 5
- evaluation value of control effect (from control value, lesion height) [4]: 5
- evaluation value of control effect (from control value, lesion area percentage) [5]: 5
- evaluation value of control effect (from control value, number of lesions) [6]: 5
- evaluation value of control effect (from control value, number of lesions) [7]: 5
- evaluation value of control effect (from control value, number of lesions) [8]: 5

SMILES: Cc1nc(C(F)F)c(C(=O)N(C(=O)c2cn(C)nc2C(F)F)c2ccccc2CCC(C)C)s1 [1-313]
- evaluation value of control effect (from control value, lesion height) [1]: 5
- evaluation value of control effect (from control value, number of lesions) [2]: 4
- evaluation value of control effect (from control value, lesion height) [3]: 5
- evaluation value of control effect (from control value, lesion height) [4]: 5
- evaluation value of control effect (from control value, lesion area percentage) [5]: 4
- evaluation value of control effect (from control value, number of lesions) [6]: 5
- evaluation value of control effect (from control value, number of lesions) [7]: 5
- evaluation value of control effect (from control value, number of lesions) [8]: 5

SMILES: Cn1cc(C(=O)N(C(=O)c2scnc2C(F)F)c2ccccc2-c2cc(F)c(F)c(F)c2)c(C(F)F)n1 [1-370]
- evaluation value of control effect (from control value, lesion height) [1]: 5
- evaluation value of control effect (from control value, number of lesions) [2]: 4
- evaluation value of control effect (from control value, lesion height) [3]: 5
- evaluation value of control effect (from control value, lesion height) [4]: 5
- evaluation value of control effect (from control value, lesion area percentage) [5]: 4
- evaluation value of control effect (from control value, number of lesions) [6]: 5
- evaluation value of control effect (from control value, number of lesions) [7]: 5
- evaluation value of control effect (from control value, number of lesions) [8]: 5

SMILES: Cn1cc(C(=O)N(C(=O)c2onc(Cl)c2Cl)c2ccccc2-c2cc(F)c(F)c(F)c2)c(C(F)F)n1 [1-374]
- evaluation value of control effect (from control value, lesion height) [1]: 5
- evaluation value of control effect (from control value, number of lesions) [2]: 4
- evaluation value of control effect (from control value, lesion height) [3]: 5
- evaluation value of control effect (from control value, lesion height) [4]: 5
- evaluation value of control effect (from control value, lesion area percentage) [5]: 4
- evaluation value of control effect (from control value, number of lesions) [6]: 5
- evaluation value of control effect (from control value, number of lesions) [7]: 5
- evaluation value of control effect (from control value, number of lesions) [8]: 5

SMILES: Cc1nn(C)c(F)c1C(=O)N(C(=O)c1cc(Cl)no1)c1ccccc1C(C)CC(C)C (centres unmarked) [1-376]
- evaluation value of control effect (from control value, lesion height) [1]: 5
- evaluation value of control effect (from control value, number of lesions) [2]: 4
- evaluation value of control effect (from control value, lesion height) [3]: 5
- evaluation value of control effect (from control value, lesion height) [4]: 5
- evaluation value of control effect (from control value, lesion area percentage) [5]: 4
- evaluation value of control effect (from control value, number of lesions) [6]: 5
- evaluation value of control effect (from control value, number of lesions) [7]: 5
- evaluation value of control effect (from control value, number of lesions) [8]: 5

SMILES: CC(C)CC(C)c1sccc1N(C(=O)c1cn(C)nc1C(F)F)C(=O)c1snc(Cl)c1Cl (centres unmarked) [5-5]
- evaluation value of control effect (from control value, lesion height) [1]: 5
- evaluation value of control effect (from control value, number of lesions) [2]: 4
- evaluation value of control effect (from control value, lesion height) [3]: 5
- evaluation value of control effect (from control value, lesion height) [4]: 5
- evaluation value of control effect (from control value, lesion area percentage) [5]: 5
- evaluation value of control effect (from control value, number of lesions) [6]: 5
- evaluation value of control effect (from control value, number of lesions) [7]: 5
- evaluation value of control effect (from control value, number of lesions) [8]: 5

SMILES: Cc1nnsc1C(=O)N(C(=O)c1cn(C)nc1C(F)F)c1ccsc1C(C)CC(C)C (centres unmarked) [5-23]
- evaluation value of control effect (from control value, lesion height) [1]: 5
- evaluation value of control effect (from control value, number of lesions) [2]: 4
- evaluation value of control effect (from control value, lesion height) [3]: 5
- evaluation value of control effect (from control value, lesion height) [4]: 5
- evaluation value of control effect (from control value, lesion area percentage) [5]: 5
- evaluation value of control effect (from control value, number of lesions) [6]: 5
- evaluation value of control effect (from control value, number of lesions) [7]: 5
- evaluation value of control effect (from control value, number of lesions) [8]: 5

SMILES: Cc1cc(C(=O)N(C(=O)c2scnc2C(F)F)c2ccccc2C(C)CC(C)C)sn1 (centres unmarked) [7-134]
- evaluation value of control effect (from control value, lesion height) [1]: 5
- evaluation value of control effect (from control value, number of lesions) [2]: 4
- evaluation value of control effect (from control value, lesion height) [3]: 5
- evaluation value of control effect (from control value, lesion height) [4]: 5
- evaluation value of control effect (from control value, lesion area percentage) [5]: 4
- evaluation value of control effect (from control value, number of lesions) [6]: 5
- evaluation value of control effect (from control value, number of lesions) [7]: 5
- evaluation value of control effect (from control value, number of lesions) [8]: 5

SMILES: Cc1nsc(C(=O)N(C(=O)c2scnc2C(F)F)c2ccccc2C(C)CC(C)C)c1Cl (centres unmarked) [7-141]
- evaluation value of control effect (from control value, lesion height) [1]: 5
- evaluation value of control effect (from control value, number of lesions) [2]: 4
- evaluation value of control effect (from control value, lesion height) [3]: 5
- evaluation value of control effect (from control value, lesion height) [4]: 5
- evaluation value of control effect (from control value, lesion area percentage) [5]: 4
- evaluation value of control effect (from control value, number of lesions) [6]: 5
- evaluation value of control effect (from control value, number of lesions) [7]: 5
- evaluation value of control effect (from control value, number of lesions) [8]: 5

SMILES: CCc1nc(C(F)F)c(C(=O)N(C(=O)c2sc(C)nc2C(F)F)c2ccccc2C(C)CC(C)C)s1 (centres unmarked) [7-216]
- evaluation value of control effect (from control value, lesion height) [1]: 5
- evaluation value of control effect (from control value, number of lesions) [2]: 4
- evaluation value of control effect (from control value, lesion height) [3]: 5
- evaluation value of control effect (from control value, lesion height) [4]: 5
- evaluation value of control effect (from control value, lesion area percentage) [5]: 4
- evaluation value of control effect (from control value, number of lesions) [6]: 5
- evaluation value of control effect (from control value, number of lesions) [7]: 5
- evaluation value of control effect (from control value, number of lesions) [8]: 5
